Source: ChEMBL document CHEMBL1201862, “PubChem BioAssay data set” (2004)
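Tested at 5 concentrations; 48 h exposure; 96-well plates; endpoints linearly interpolated, else capped at highest concentration. GI50 marks 50% less growth.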 Active and inactive are the calls of the source. No stated cut-off is given here; in the data, active = GI50 up to about 1.1 µM and inactive = higher.

Columns and labels:
Test in all cases: growth of human tumour cells (NCI), 48 h
[1] = tested on: SNB-75
[2] = tested on: U-251
[3] = tested on: CCRF-CEM
[4] = tested on: MDA-MB-435
[5] = tested on: TK-10
[6] = tested on: SN12C
[7] = tested on: A549
[8] = tested on: SK-OV-3
[9] = tested on: HCC 2998
[10] = tested on: SK-MEL-5
[11] = tested on: BT-549
[12] = tested on: NCI-H522
[13] = tested on: ACHN
[14] = tested on: CAKI-1
[15] = tested on: NCI-H460
[16] = tested on: LOX IMVI
[17] = tested on: Malme-3M
[18] = tested on: DU-145
[19] = tested on: SR

C[C@H]1C2Cc3cc(O)ccc3[C@@]1(C)CCN2CCc1ccc(N)cc1
GI50 [1]: > 100 µM (inactive) | GI50 [2]: 17.6 µM (inactive) | GI50 [3]: 18.5 µM (inactive) | GI50 [4]: 17.1 µM (inactive) | GI50 [5]: > 100 µM (inactive) | GI50 [6]: 98.9 µM (inactive) | GI50 [7]: 28.6 µM (inactive) | GI50 [8]: > 100 µM (inactive) | GI50 [9]: 13.6 µM (inactive) | GI50 [10]: 14.4 µM (inactive) | GI50 [11]: > 100 µM (inactive) | GI50 [12]: 19.7 µM (inactive) | GI50 [13]: 58.1 µM (inactive) | GI50 [14]: > 100 µM (inactive) | GI50 [15]: 30.3 µM (inactive) | GI50 [16]: 14.1 µM (inactive) | GI50 [17]: 18.8 µM (inactive) | GI50 [18]: > 100 µM (inactive) | GI50 [19]: 21.6 µM (inactive)

CCCC1(N)CC(OC)OC(C)C1O (centres undefined)
GI50 [1]: > 100 µM (inactive) | GI50 [2]: > 100 µM (inactive) | GI50 [3]: > 100 µM (inactive) | GI50 [4]: > 100 µM (inactive) | GI50 [5]: > 100 µM (inactive) | GI50 [6]: > 100 µM (inactive) | GI50 [7]: > 100 µM (inactive) | GI50 [8]: > 100 µM (inactive) | GI50 [9]: > 100 µM (inactive) | GI50 [10]: > 100 µM (inactive) | GI50 [11]: > 100 µM (inactive) | GI50 [12]: > 100 µM (inactive) | GI50 [13]: > 100 µM (inactive) | GI50 [14]: > 100 µM (inactive) | GI50 [15]: > 100 µM (inactive) | GI50 [16]: > 100 µM (inactive) | GI50 [17]: > 100 µM (inactive) | GI50 [18]: > 100 µM (inactive) | GI50 [19]: > 100 µM (inactive)

COc1cc(C(O)c2ccc3c(c2)OCO3)cc(OC)c1OC (centres undefined)
GI50 [1]: 73.5 µM (inactive) | GI50 [2]: > 100 µM (inactive) | GI50 [3]: > 100 µM (inactive) | GI50 [4]: 70 µM (inactive) | GI50 [5]: > 100 µM (inactive) | GI50 [6]: > 100 µM (inactive) | GI50 [7]: > 100 µM (inactive) | GI50 [8]: > 100 µM (inactive) | GI50 [9]: > 100 µM (inactive) | GI50 [10]: 80.2 µM (inactive) | GI50 [11]: > 100 µM (inactive) | GI50 [12]: > 100 µM (inactive) | GI50 [13]: > 100 µM (inactive) | GI50 [14]: > 100 µM (inactive) | GI50 [15]: > 100 µM (inactive) | GI50 [16]: > 100 µM (inactive) | GI50 [17]: > 100 µM (inactive) | GI50 [18]: > 100 µM (inactive) | GI50 [19]: > 100 µM (inactive)

C/C(=N\NC(N)=S)c1nc2cccnc2[nH]1
GI50 [1]: > 100 µM (inactive) | GI50 [2]: 40.8 µM (inactive) | GI50 [3]: 31.1 µM (inactive) | GI50 [4]: 52.4 µM (inactive) | GI50 [5]: > 80.4 µM (inactive) | GI50 [6]: > 100 µM (inactive) | GI50 [7]: 57.5 µM (inactive) | GI50 [8]: 30.2 µM (inactive) | GI50 [9]: > 66.1 µM (inactive) | GI50 [10]: 47.3 µM (inactive) | GI50 [11]: 24.9 µM (inactive) | GI50 [12]: > 68.5 µM (inactive) | GI50 [13]: 43 µM (inactive) | GI50 [14]: 33.5 µM (inactive) | GI50 [15]: 45.7 µM (inactive) | GI50 [16]: 73.5 µM (inactive) | GI50 [17]: > 92.9 µM (inactive) | GI50 [18]: 63.7 µM (inactive) | GI50 [19]: 45.5 µM (inactive)

COc1cc2c(cc1O)Cc1c-2[n+](C)cc2cc(OC)c(OC)cc12
GI50 [1]: 63.2 µM (inactive) | GI50 [2]: 2.01 µM (inactive) | GI50 [3]: 0.407 µM (active) | GI50 [4]: 36 µM (inactive) | GI50 [5]: > 88.1 µM (inactive) | GI50 [6]: 4.8 µM (inactive) | GI50 [7]: 38 µM (inactive) | GI50 [8]: > 35.6 µM (inactive) | GI50 [9]: > 100 µM (inactive) | GI50 [10]: 6.76 µM (inactive) | GI50 [11]: 8.11 µM (inactive) | GI50 [12]: 0.49 µM (active) | GI50 [13]: 1.5 µM (inactive) | GI50 [14]: 25.8 µM (inactive) | GI50 [15]: 3.28 µM (inactive) | GI50 [16]: 5.94 µM (inactive) | GI50 [17]: > 86.5 µM (inactive) | GI50 [18]: 4.23 µM (inactive) | GI50 [19]: 0.118 µM (active)

CC(C)/C(Cl)=N/OC(NC(=O)Nc1ccc(Cl)c(Cl)c1)(C(F)(F)F)C(F)(F)F
GI50 [1]: 16.9 µM (inactive) | GI50 [2]: 17.3 µM (inactive) | GI50 [3]: 2.16 µM (inactive) | GI50 [4]: 16.4 µM (inactive) | GI50 [5]: 17.4 µM (inactive) | GI50 [6]: 11 µM (inactive) | GI50 [7]: 23.2 µM (inactive) | GI50 [8]: 18.2 µM (inactive) | GI50 [9]: 20.1 µM (inactive) | GI50 [10]: 15.8 µM (inactive) | GI50 [11]: 11.5 µM (inactive) | GI50 [12]: 1.69 µM (inactive) | GI50 [13]: 12.2 µM (inactive) | GI50 [14]: 2.16 µM (inactive) | GI50 [15]: 24.5 µM (inactive) | GI50 [16]: 4.51 µM (inactive) | GI50 [17]: 2.37 µM (inactive) | GI50 [18]: 16.7 µM (inactive) | GI50 [19]: 3.56 µM (inactive)
